Measurements published in ChEMBL document CHEMBL1131509, “Synthesis and cytotoxicity of 2-acetyl-4,8-dihydrobenzodithiophene-4, 8-dione derivatives” (J Med Chem, 1998).

Experiments:
SK-MEL-28 = test: in vitro inhibition of melanoma (SK-MEL-28) cancer cell line; assay type: functional; conditions: Homo sapiens
Hs-578T = test: in vitro inhibition of breast (HS 578T) cancer cell line; assay type: functional; conditions: Homo sapiens
M14 = test: in vitro inhibition of melanoma (M14) cancer cell line; assay type: functional; conditions: Homo sapiens
MDA-N = test: in vitro inhibition of breast (MDA-N) cancer cell line; assay type: functional; conditions: Homo sapiens
MDA-MB-435 = test: in vitro inhibition of breast (MDA-MB-435) cancer cell line; assay type: functional; conditions: Homo sapiens
NCI-H522 = test: in vitro inhibition of non-small-cell lung (NCI-H522) cancer cell line; assay type: functional; conditions: Homo sapiens
SK-MEL-2 [1] = test: in vitro inhibition of melanoma (SK-MEL-2) cancer cell line; assay type: functional; conditions: Homo sapiens
SK-MEL-5 = test: in vitro inhibition of melanoma (SK-MEL-5) cancer cell line; assay type: functional; conditions: Homo sapiens
OVCAR-8 = test: in vitro inhibition of ovarian (OVCAR-8) cancer cell line; assay type: functional; conditions: Homo sapiens
BT-549 [2] = test: in vitro inhibition of breast (BT-549) cancer cell line; assay type: functional; conditions: Homo sapiens
HL-60 = test: in vitro inhibition of leukemia (HL-60(TB)) cancer cell line; assay type: functional; conditions: Homo sapiens
NCI-H23 = test: in vitro inhibition of non-small-cell lung (NCI-H23) cancer cell line; assay type: functional; conditions: Homo sapiens
OVCAR-3 = test: in vitro inhibition of ovarian (OVCAR-3) cancer cell line; assay type: functional; conditions: Homo sapiens
LOX IMVI = test: in vitro inhibition of melanoma(LOX IMVI) cancer cell line; assay type: functional; conditions: Homo sapiens
Malme-3M = test: in vitro inhibition of melanoma (MALME-3M) cancer cell line; assay type: functional; conditions: Homo sapiens
UACC-257 = test: in vitro inhibition of melanoma (UACC-257) cancer cell line; assay type: functional; conditions: Homo sapiens
UACC-62 = test: in vitro inhibition of melanoma (UACC-62) cancer cell line; assay type: functional; conditions: Homo sapiens
A549 = test: cytotoxic activity against […] cancer cell line; assay type: functional, cell-based; conditions: Homo sapiens
P388 = test: cytotoxic activity against leukemia (P-388) cancer cell line; assay type: functional, cell-based; conditions: Mus musculus
MCF7 = test: cytotoxic activity against […] cancer cell line; assay type: functional, cell-based; conditions: Homo sapiens
L1210 (1565) = test: cytotoxic activity against leukemia (L-1210) cancer cell line; assay type: functional, cell-based; conditions: Mus musculus
KB = test: cytotoxic activity against […] cancer cell line; assay type: functional, cell-based; conditions: Homo sapiens
CAKI-1 = test: cytotoxic activity against […] cancer cell line; assay type: functional, cell-based; conditions: Homo sapiens
HCT-8 = test: cytotoxic activity against […] cancer cell line; assay type: functional, cell-based; conditions: Homo sapiens
BT-549 [3] = test: in vitro inhibition of breast (BT-549) cancer cell line; conditions: Homo sapiens
SK-MEL-2 [4] = test: cytotoxic activity against […] cancer cell line; assay type: functional, cell-based; conditions: Homo sapiens

SMILES | GI50 (SK-MEL-28) [nM] | GI50 (Hs-578T) [nM] | GI50 (M14) [nM] | GI50 (MDA-N) [nM] | GI50 (MDA-MB-435) [nM] | GI50 (NCI-H522) [nM] | GI50 (SK-MEL-2 [1]) [nM] | GI50 (SK-MEL-5) [nM] | GI50 (OVCAR-8) [nM] | GI50 (BT-549 [2]) [nM] | GI50 (HL-60) [nM] | GI50 (NCI-H23) [nM] | GI50 (OVCAR-3) [nM] | GI50 (LOX IMVI) [nM] | GI50 (Malme-3M) [nM] | GI50 (UACC-257) [nM] | GI50 (UACC-62) [nM] | other results
CC(O)c1cc2c(s1)C(=O)c1ccsc1C2=O (configuration not stated) | 17 | 110 | 15 | 13 | < 10 | 120 | 91 | < 10 | 200 | 78 | 15 | 15 | 24 | 10 | 16 | 15 | 16 | –
O=C1c2ccsc2C(=O)c2ccsc21 | – | – | – | – | – | – | – | – | – | – | – | – | – | – | – | – | – | IC50 (A549): 260 nM; IC50 (P388): < 530 nM; IC50 (MCF7): 480 nM; IC50 (L1210 (1565)): 1700 nM; IC50 (KB): 310 nM; IC50 (CAKI-1): 1500 nM; IC50 (HCT-8): 320 nM
CC(=O)c1cc2c(s1)C(=O)c1c(C(C)=O)csc1C2=O | 1800 | 2400 | 1500 | 170 | 180 | 530 | 1700 | 1200 | 1500 | – | 53 | 1300 | 230 | 1100 | 130 | 560 | 2000 | GI50 (BT-549 [3]): 1700 nM
CC(=O)OC(C)c1cc2c(s1)C(=O)c1c(C(C)OC(C)=O)csc1C2=O (configuration not stated) | 1700 | 2100 | 510 | 210 | 190 | < 10 | 1600 | 630 | 460 | – | 68 | 870 | 280 | 1600 | 190 | 630 | 1100 | GI50 (BT-549 [3]): 2100 nM
CC(=O)c1cc2c(s1)C(=O)c1scc(C(C)=O)c1C2=O | 200 | 280 | 440 | 200 | 230 | 380 | 160 | 320 | 230 | 910 | < 10 | 290 | 30 | 22 | 220 | 170 | 230 | –
CC(=O)OC(C)c1cc2c(s1)C(=O)c1scc(C(C)OC(C)=O)c1C2=O (configuration not stated) | 210 | 250 | 120 | 59 | 21 | 200 | 150 | 34 | 230 | 200 | 650 | 160 | 270 | 120 | 130 | 170 | 200 | –
CC(=O)OC(C)c1cc2c(s1)C(=O)c1ccsc1C2=O (configuration not stated) | 19 | 160 | 13 | < 10 | < 10 | 150 | 26 | 14 | 36 | – | < 10 | 11 | < 10 | < 10 | < 10 | 25 | 17 | GI50 (BT-549 [3]): 46 nM
CC(O)c1cc2c(s1)C(=O)c1c(C(C)O)csc1C2=O (configuration not stated) | 190 | 320 | 58 | 21 | 18 | 300 | 110 | 13 | 220 | – | 11 | 34 | 12 | 55 | 28 | 62 | 32 | GI50 (BT-549 [3]): 160 nM
CC(=O)c1cc2c(s1)C(=O)c1sccc1C2=O | < 10 | 36 | 17 | < 10 | < 10 | 17 | 33 | < 10 | 31 | 18 | < 10 | 18 | < 10 | < 10 | 16 | 14 | 17 | –
O=C1c2ccsc2C(=O)c2sccc21 | – | – | – | – | – | – | – | – | – | – | – | – | – | – | – | – | – | IC50 (A549): 170 nM; IC50 (MCF7): < 85 nM; IC50 (SK-MEL-2 [4]): 320 nM; IC50 (KB): 270 nM; IC50 (CAKI-1): 590 nM; IC50 (HCT-8): 170 nM
CC(=O)OC(C)c1cc2c(s1)C(=O)c1sccc1C2=O (configuration not stated) | 650 | 510 | 160 | 19 | 180 | 870 | 420 | 110 | 1400 | 280 | 1700 | 220 | 490 | 210 | 120 | 210 | 1400 | –
CC(O)c1cc2c(s1)C(=O)c1sccc1C2=O (configuration not stated) | 39 | 58 | 15 | 19 | 16 | 120 | 31 | 14 | 160 | 35 | 69 | 16 | 120 | 24 | 19 | 18 | 22 | –
CC(O)c1cc2c(s1)C(=O)c1scc(C(C)O)c1C2=O (configuration not stated) | 230 | 320 | 160 | 150 | 160 | 400 | 200 | 140 | 260 | 200 | 440 | 190 | 360 | 120 | 150 | 160 | 250 | –
CC(=O)c1cc2c(s1)C(=O)c1ccsc1C2=O | 160 | 160 | 130 | 37 | 37 | 160 | 200 | 23 | 300 | 180 | 45 | 150 | 160 | 25 | 117 | 130 | 210 | –
